Results published in ChEMBL document CHEMBL3243927, “5,6,7,8-Tetrahydroquinolines. 5. Antiulcer and antisecretory activity of 5,6,7,8-tetrahydroquinolinethioureas and related heterocycles” (J Med Chem, 1977).
The source made the active and inactive calls. The calls are words filed in the database; no cut-off is given here.

What was measured:
Rattus norvegicus [1] = test: Antiulcer activity in Sprague-Dawley rat assessed as inhibition of cold-restraint stress-induced gastric erosion at 100 mg/kg, po after 3 hrs; format: functional, organism-based; design: dose 100 mg/kg; details: Stomach
Rattus norvegicus [2] = test: Antisecretory activity in pylorus-ligated Sprague-Dawley rat assessed as inhibition of gastric juice secretion at 30 mg/kg administered intraduodenally after 4 hrs by potentiographic titration analysis relative to control; format: functional, organism-based; design: dose 30 mg/kg
Rattus norvegicus [3] = test: Toxicity in po dosed Sprague-Dawley rat assessed as mortality; format: organism-based; details: in vivo
Rattus norvegicus [4] = test: Antisecretory activity in pylorus-ligated Sprague-Dawley rat assessed as inhibition of gastric juice secretion at 10 mg/kg administered intraduodenally after 4 hrs by potentiographic titration analysis; format: functional, organism-based; design: dose 10 mg/kg
Rattus norvegicus [5] = test: Antiulcer activity in Sprague-Dawley rat assessed as inhibition of cold-restraint stress-induced gastric erosion at 30 mg/kg, po after 3 hrs; format: functional, organism-based; design: dose 30 mg/kg; details: Stomach

Structure (SMILES) | Activity (Rattus norvegicus [1]) | Activity (Rattus norvegicus [2]) | Activity (Rattus norvegicus [3]) | Activity (Rattus norvegicus [4]) | Activity (Rattus norvegicus [5])
CN/C(=N/C#N)NC1CCCc2cc(C)cnc21 (configuration not stated) | inactive | inactive |  |  | 
CNC(=S)NC(C)C1CCCc2cc(C)cnc21 (configuration not stated) | inactive | inactive |  |  | 
CN/C(=N/C(N)=S)NC1CCCc2cc(C)cnc21 (configuration not stated) | Active | inactive |  |  | 
CNC(=S)N1CCc2ncc(C)cc2C1 | Active | inactive |  |  | 
Cc1cnc2c(c1)C(NC(=S)NC(=O)c1ccccc1)CCC2 (configuration not stated) |  | inactive | Toxic |  | 
O=C(NC(=S)N1CCc2cccnc21)c1ccccc1 | inactive | inactive |  |  | 
NC(=S)N1CCc2cccnc21 |  |  | Toxic | Active | 
NC(=S)N1CCCCc2cccnc21 | inactive | Active |  |  | 
S=C1NCc2cccnc2N1 | inactive | inactive |  |  | 
CNC(=S)NC1CCCc2ncc(C)cc21 (configuration not stated) | inactive | inactive |  |  | 
CNC(=S)NC1CCCc2cc(C)cnc21 (configuration not stated) | Active |  |  | Active | 
CNC(=S)N1CCCc2cccnc21 |  | Active |  |  | Active
Cc1cnc2c(c1)C(NC(=S)Nc1ccccc1)CCC2 (configuration not stated) | inactive | Active |  |  | 
CNC(=S)N1CCCCc2cccnc21 | inactive |  |  | Active | 
Cc1cnc2c(c1)CCCC2NC(N)=S (configuration not stated) | Active | Active |  |  | 
CS/C(=N/C#N)NC1CCCc2cc(C)cnc21 (configuration not stated) | inactive |  |  |  | 
CNC(=S)N1CCc2cccnc21 |  | Active |  |  | Active
CN/C(=N/C(N)=O)NC1CCCc2cc(C)cnc21 (configuration not stated) | inactive | inactive |  |  | 
CCCCNC(=S)N1CCc2cccnc21 | inactive | inactive |  |  | 
Cc1cnc2c(c1)C(NC(N)=S)CCC2 (configuration not stated) | inactive |  |  |  | 
CNC(=S)N1CCCc2ncccc21 |  | Active |  |  | Active
Cc1cnc2c(c1)CCCC2NC(=S)NC(=O)c1ccccc1 (configuration not stated) | inactive | inactive |  |  | 
